Assays:
[1] = tested on: BT-20 human breast cancer cells; assay: MTT cytotoxicity assay, BT-20; assay type: cell-based; details: BT-20 (breast cancer), 24-36 hours, read-out: IC50 [MTT]
[2] = tested on: U373 human glioblastoma cells; assay: MTT cytotoxicity assay, U373; assay type: cell-based; details: U373 MG, U373 (brain tumor, glioblastoma), 24-36 hours, read-out: IC50 [MTT]
[3] = tested on: DU-145 (prostate cancer); assay: MTT cytotoxicity assay, DU-145; assay type: cell-based; details: Homo sapiens
Procedure: The cytotoxicity assay of synthetic Phorboxazole A and various derivative compounds against human tumor cells was performed using the MTT (3-[4,5-dimethylthiazol-2-yl]-2,5-diphenyl tetrazolium bromide) assay (Boehringer Mannheim Corp., Indianapolis, Ind.). Briefly, exponentially growing brain tumor cells were seeded into a 96-well plate at a density of 2.5×10^4 cells/well and incubated for 36 hours at 37° C. prior to drug exposure. On the day of treatment, culture medium was carefully aspirated from the wells and replaced with fresh medium containing the various phorboxazole A derivative compounds as well as the tyrosine kinase inhibitory isoflavone genistein (GEN) at concentrations ranging from 0.1 to 250 μM. Triplicate wells were used for each treatment.
The cells were incubated with the various compounds for 24-36 hours at 37° C. in a humidified 5% CO2 atmosphere. To each well, 10 μl of MTT (0.5 mg/ml final concentration) was added and the plates were incubated at 37° C. for 4 hours to allow MTT to form formazan crystals by reacting with metabolically active cells. […] The absorbance of each well was measured in a microplate reader (Labsystems) at 540 nm and a reference wavelength of 690 nm. […] The percent survival was calculated using the formula: [formula]
The IC50 values were calculated by non-linear regression analysis. […]

[4] = tested on: ARH77 (multiple myeloma); assay: MTT cytotoxicity assay, ARH77; assay type: cell-based; details: Homo sapiens, ARH-77
[5] = tested on: HS-SULTAN (multiple myeloma); assay: MTT cytotoxicity assay, HS-SULTAN; assay type: cell-based; details: Homo sapiens
[6] = tested on: RPMI-18226 (multiple myeloma); assay: MTT cytotoxicity assay, RPMI-18226; assay type: cell-based; details: Homo sapiens, RPMI18226
[7] = tested on: BT-20 breast cancer cells; assay: In vitro adhesion assay to ECM proteins, BT-20; assay type: cell-based, human; details: laminin-, fibronectin-, and collagen-coated plates, 0.1 μM to 1 μM for 24 hours
Procedure: (§1) Human brain tumor cell lines U-373 MG and breast cancer cell lines BT-20 and MDA-MB-231 were obtained from American Type Culture Collection (ATCC, Rockville, Md.) and maintained in liquid culture using DMEM supplemented with 10% fetal bovine serum and antibiotics. Fibroblast conditioned medium was used as a source of chemoattractant in vitro invasion assays. Conditioned medium was prepared as described in the literature (Albini et.al., 1987, Cancer Res., 47:3239-3245).
(§2) In vitro adhesion assays were performed to (a) study the baseline adhesive properties of various breast cancer and glioblastoma cell lines and (b) evaluate the effects of phorboxazole A derivatives on the adhesive properties of breast cancer and glioblastoma cells. The plates for the adhesion assays were precoated with the extracellular matrix proteins laminin, fibronectin, or type IV collagen (each at a final concentration of 1 μg/ml in PBS) overnight at 4° C. and dried. On the day of the experiment, the wells were rehydrated and blocked with 10% bovine serum albumin in PBS for 1 hour at room temperature and used for the adhesion assays, as described below.
(§3) The effects of synthetic phorboxazole A and specific derivatives on adhesion of breast cancer and glioblastoma cells was studied. Exponentially growing cells in DMEM were incubated with phorboxazole compounds or genistein as a control at concentrations ranging from 0.1 μM to 1 μM for 24 hours in a humidified 5% CO2 atmosphere. DMSO (0.1%) was included as a vehicle control. After treatment, cells were detached from the flasks with 0.05% trypsin (Life Technologies) resuspended in DMEM, incubated at 37° C. for 2 hours to allow them to recover from the trypsinization stress and examined for their ability to adhere to plates precoated with ECM proteins.
(§4) In adhesion assays, cells were centrifuged, washed twice with serum-free DMEM, counted and resuspended in serum-free DMEM to a final concentration of 2.5×10^5 cells/ml. […] The adherent fraction was quantitated using MTT (3-[4,5-dimethylthiazol-2-yl]-2,5-diphenyltetrazolium bromide) assays. […] The absorbance of each well was measured in a microplate reader (Labsystems) at 540 nm and a reference wavelength of 690 nm.
(§5) To translate the OD540 values into the number of cells in each well, the OD540 values were compared to those on standard OD540-versus-cell number curves generated for each cell line. The adherent fractions of cells treated with phorboxazole A derivatives were compared to those of DMSO-treated control cells and the percent inhibition of adhesion was determined using the formula: [formula]
(§6) Each treatment condition was evaluated in duplicate in 3 independent experiments. The IC50 values were calculated by non-linear regression analysis. […]

[8] = tested on: MDA-MB-231 breast cancer cells; assay: In vitro adhesion assay to ECM proteins, MDA-MB-231; assay type: cell-based, human; details: laminin-, fibronectin-, and collagen-coated plates, 0.1 μM to 1 μM for 24 hours
Procedure: as §1, §2, §3, §4, §5, §6

C=C1C[C@@H]2C[C@@H]3C[C@@H](O)C[C@@H](O3)c3coc(n3)/C=C/C[C@H]3O[C@@H](/C(C)=C/c4coc(C[C@]5(O)C[C@H](OC)C[C@H]([C@H](O)/C=C(C)/C=C/[C@@H](C/C=C/Br)OC)O5)n4)[C@H](C)[C@@H](OC(=O)/C=C\C[C@@H](C1)O2)[C@H]3C [Compound 1, Phorboxazole A]
IC50 [1]: 3.4 nM | IC50 [2]: 6.7 nM | IC50 [3]: 15 nM | IC50 [4]: 7.5 nM | IC50 [5]: 29.8 nM | IC50 [6]: 55.9 nM | Inhibition of cell adhesion [7]: active | Inhibition of cell adhesion [8]: active

— US6797721B2, “Phorboxazole derivatives for treating cancer” (Parker Hughes Institute, priority 1999, dated 2004)
